Measurements taken from the supplement of paper PMC10307832.

Assays:
Experiment in all cases: relative viability (nuclei count vs DMSO), 5 days (fraction); higher = more cells survive
[1] = compound: C1CC(C2=C(C1)C3=C(N2)C=CC(=C3)Cl)C(=O)N [Selisistat] + CC(=O)c1c(C)c2cnc(Nc3ccc(N4CCNCC4)cn3)nc2n(C2CCCC2)c1=O [Palbociclib] (partner 0.5 µM)
How it was run: (§1)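 One day after seeding in 1536-well plates, lung cancer cell lines were dosed by pin tool. Dosing was either single-drug or a fixed anchor-drug dose plus five library-drug doses (not always all listed) in √10 steps. After 5 days, nuclei were stained in one fix-and-stain step and counted on 4× images, and relative viability is the nuclei count of treated wells over that of vehicle wells, given as the median of duplicate plates.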

[2] = compound: C1CC(C2=C(C1)C3=C(N2)C=CC(=C3)Cl)C(=O)N [Selisistat] + NC(=O)Nc1cc(-c2cccc(F)c2)sc1C(=O)N[C@H]1CCCNC1 [AZD7762] (partner 0.2 µM)
How it was run: as §1

[3] = compound: c1ccc2c(CCNc3ccc(Nc4ccncc4)cc3)c[nH]c2c1 [Serdemetan] + C[C@@H](Oc1cc(-c2cnn(C3CCNCC3)c2)cnc1N)c1c(Cl)ccc(F)c1Cl [Crizotinib] (partner 1 µM)
How it was run: as §1

[4] = compound: c1ccc2c(CCNc3ccc(Nc4ccncc4)cc3)c[nH]c2c1 [Serdemetan] + Nc1ncn([C@H]2C[C@H](O)[C@@H](CO)O2)c(=O)n1 [Decitabine] (partner 2 µM)
How it was run: as §1

Row | Cell Line | relative viability ([1]; first compound 0.4 µM) | relative viability ([1]; first compound 1.265 µM) | relative viability ([1]; first compound 12.65 µM) | relative viability ([1]; first compound 40 µM) | relative viability ([2]; first compound 0.4 µM) | relative viability ([2]; first compound 1.265 µM) | relative viability ([2]; first compound 12.65 µM) | relative viability ([2]; first compound 40 µM) | relative viability ([3]; first compound 0.04 µM) | relative viability ([3]; first compound 0.1265 µM) | relative viability ([3]; first compound 0.4 µM) | relative viability ([3]; first compound 1.265 µM) | relative viability ([3]; first compound 4 µM) | relative viability ([4]; first compound 0.04 µM) | relative viability ([4]; first compound 0.1265 µM) | relative viability ([4]; first compound 0.4 µM) | relative viability ([4]; first compound 1.265 µM) | relative viability ([4]; first compound 4 µM) | relative viability ([1]; first compound 4 µM) | relative viability ([2]; first compound 4 µM)
1 | NCI-H322M | 0.488 | 0.467 | 0.478 | 0.5 | 0.579 | 0.657 | 0.572 | 0.675 | 0.917 | 0.93 | 0.859 | 0.917 | 0.585 | 0.667 | 0.675 | 0.682 | 0.534 | 0.647 |  | 
2 | NCI-H838 | 0.208 | 0.223 | 0.242 | 0.206 | 0.933 | 0.91 | 0.971 | 1.03 | 0.781 | 0.886 | 0.827 | 0.794 | 1.01 | 0.437 | 0.459 | 0.404 | 0.386 | 0.451 | 0.185 | 0.958
3 | HARA | 0.295 | 0.242 | 0.275 | 0.251 | 0.237 | 0.342 | 0.364 | 0.219 | 0.856 | 0.971 | 0.966 |  | 0.601 | 0.542 | 0.47 | 0.409 | 0.344 | 0.379 | 0.241 | 
4 | NCI-H2087 | 0.224 | 0.278 | 0.261 | 0.287 | 1.31 | 1.14 | 1.19 | 1.25 | 1.14 | 0.746 | 0.699 | 0.426 | 0.487 | 0.285 | 0.23 | 0.251 | 0.145 | 0.135 |  | 
5 | NCI-H1437 | 0.325 | 0.282 | 0.213 | 0.242 | 1.17 | 1.12 | 0.99 | 1.01 | 0.835 | 1.03 | 0.786 | 0.778 | 0.8 | 0.511 | 0.5 | 0.582 | 0.492 | 0.427 | 0.227 | 0.918
6 | NCI-H1792 | 0.659 | 0.606 | 0.581 | 0.596 | 0.654 | 0.577 | 0.512 | 0.713 | 0.947 | 0.926 | 0.867 | 0.939 | 0.603 | 0.429 | 0.459 | 0.417 | 0.327 | 0.176 |  | 
7 | ChaGo-K-1 | 0.91 | 0.918 | 0.816 | 0.889 | 0.787 | 0.828 | 0.838 | 0.8 |  | 1.11 | 1.11 | 0.714 | 0.43 | 0.488 | 0.42 | 0.421 | 0.266 | 0.303 | 0.832 | 0.883
8 | NCI-H650 | 0.379 | 0.319 | 0.387 | 0.339 | 1.15 | 0.988 | 0.867 | 1.13 | 0.549 | 0.735 | 0.636 | 0.723 | 0.566 | 0.321 | 0.331 | 0.321 | 0.24 | 0.262 | 0.443 | 1
9 | LK-2 | 0.797 | 0.686 | 0.694 | 0.566 | 0.434 | 0.265 | 0.296 | 0.434 | 0.217 | 0.265 | 0.205 | 0.204 | 0.252 | 0.37 | 0.29 | 0.274 | 0.223 | 0.283 | 0.766 | 0.323
10 | 201T | 0.369 | 0.338 | 0.333 | 0.365 | 0.644 | 0.623 | 0.602 | 0.659 | 1.05 | 1.03 | 0.948 | 0.927 | 0.879 | 0.863 | 0.801 | 0.783 | 0.489 | 0.593 | 0.32 | 0.7
11 | HCC-44 | 1.05 | 0.975 | 0.994 | 1.06 | 1 | 1.04 | 1.02 | 1.15 | 0.766 | 0.828 | 0.71 | 0.54 | 0.599 | 0.895 | 0.954 | 0.925 | 0.865 | 0.961 | 1.07 | 1.1
12 | H3255 | 0.348 | 0.295 | 0.303 | 0.32 | 0.898 | 0.861 | 0.895 | 0.806 | 0.723 | 0.836 | 0.811 | 0.746 | 0.853 | 0.546 | 0.588 |  | 0.569 | 0.42 | 0.33 | 0.733
13 | NCI-H647 | 0.415 | 0.331 | 0.433 | 0.396 | 0.465 | 0.433 | 0.432 | 0.553 | 0.978 | 1.16 | 0.983 | 0.583 | 0.637 | 0.276 | 0.368 | 0.403 | 0.28 | 0.235 | 0.398 | 0.345
14 | NCI-H23 | 0.57 | 0.51 | 0.538 | 0.441 | 0.297 | 0.193 | 0.31 | 0.169 | 0.519 | 0.421 | 0.549 | 0.513 | 0.321 | 0.303 | 0.308 | 0.223 |  | 0.302 |  | 
15 | NCI-H1944 | 0.351 | 0.285 | 0.326 | 0.351 | 0.523 | 0.509 | 0.653 | 0.586 | 0.973 | 1.02 | 0.904 |  | 0.419 | 0.493 | 0.409 | 0.384 | 0.269 | 0.295 | 0.276 | 0.428
16 | NCI-H460 | 0.163 | 0.149 | 0.15 | 0.113 | 0.617 | 0.488 | 0.571 | 0.697 | 0.842 | 0.866 | 0.836 | 0.154 | 0.075 | 0.374 | 0.385 | 0.314 | 0.194 | 0.102 | 0.137 | 
17 | EKVX | 0.364 | 0.351 | 0.376 | 0.353 | 0.682 | 0.732 | 0.699 | 0.802 | 0.899 | 0.894 | 0.913 | 0.897 | 0.98 | 0.322 | 0.33 |  |  | 0.291 | 0.329 | 0.705
18 | NCI-H358 | 0.137 | 0.128 | 0.192 | 0.149 | 0.532 | 0.589 | 0.518 | 0.639 | 0.599 | 0.566 | 0.618 | 0.593 | 0.292 | 0.186 | 0.234 | 0.221 | 0.18 | 0.195 | 0.128 | 
19 | EPLC-272H | 0.343 | 0.323 | 0.334 | 0.368 | 0.236 | 0.215 | 0.318 | 0.336 | 0.939 | 0.692 | 0.868 | 0.612 | 0.837 | 0.384 | 0.362 | 0.341 | 0.338 | 0.256 |  | 
20 | NCI-H2126 | 0.377 | 0.369 | 0.362 | 0.37 | 1.04 | 1.04 | 1.03 | 1.03 | 1.02 | 1.07 | 0.944 | 0.734 | 1 | 0.623 | 0.583 | 0.612 | 0.451 | 0.519 | 0.336 | 0.992
21 | LXF-289 | 0.628 | 0.639 | 0.557 | 0.619 | 1.12 | 1.14 | 1.03 | 1.1 | 0.754 | 0.776 | 0.719 | 0.637 | 0.689 | 0.354 | 0.357 | 0.349 | 0.268 | 0.337 | 0.55 | 0.936
22 | NCI-H2405 | 0.534 | 0.536 | 0.578 | 0.502 | 0.718 | 0.732 | 0.725 | 0.678 | 0.81 | 0.781 | 0.818 | 0.763 | 0.608 | 0.707 | 0.766 | 0.756 | 0.674 | 0.625 |  | 
23 | NCI-H1755 | 0.457 | 0.465 | 0.485 | 0.439 | 0.427 | 0.391 | 0.407 | 0.43 | 0.83 | 0.768 | 0.767 | 0.323 | 0.428 | 0.697 | 0.73 | 0.668 | 0.488 | 0.434 | 0.428 | 0.407
24 | HCC-78 | 0.488 | 0.461 | 0.476 | 0.473 | 0.626 | 0.669 | 0.683 | 0.502 | 0.342 | 0.325 | 0.322 | 0.321 | 0.322 | 0.659 | 0.718 | 0.698 | 0.638 | 0.525 | 0.435 | 0.431
25 | LOU-NH91 | 0.594 | 0.526 | 0.519 | 0.552 | 0.751 | 0.755 | 0.723 | 0.841 | 0.733 | 0.738 |  | 0.719 | 0.699 | 0.813 | 0.845 |  |  | 0.872 | 0.585 | 0.775
26 | NCI-H3122 | 0.223 | 0.191 | 0.191 | 0.178 | 1.03 | 0.95 | 1.04 | 1 | 0.292 | 0.241 | 0.28 |  | 0.237 | 0.451 | 0.444 | 0.469 | 0.322 | 0.368 |  | 
27 | HCC-827 | 0.483 | 0.475 | 0.439 | 0.527 | 0.206 | 0.154 | 0.279 | 0.24 | 0.948 | 0.867 |  | 0.791 | 0.615 | 0.371 | 0.243 |  | 0.263 | 0.305 | 0.534 | 0.187
28 | NCI-H1975 | 0.585 | 0.585 | 0.478 | 0.523 | 0.684 | 0.661 | 0.647 | 0.646 | 0.91 | 0.934 | 0.937 | 0.804 | 0.99 | 0.421 | 0.369 | 0.306 | 0.262 | 0.34 | 0.38 | 0.581
